Data published in patent publication US12473304B2, “Heterocyclic PAD4 inhibitors” (BRISTOL-MYERS SQUIBB COMPANY, priority 2020, dated 2025).

These compounds were tested against human PAD4 (hPAD4) (Homo sapiens (Human), UniProt Q9UM07) (assay: RFMS Human PAD4 Functional Assay 1). Conditions: RFMS assay 1; 5 nM hPAD4, 250 μM BAEE substrate, 50 μM calcium, 37° C.
Format: biochemical
Method in brief: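 Citrullination product read by RapidFire triple-quad MRM against a modified-citrulline internal standard, after TCA stop and 30 min phenyl glyoxal step at 37 °C. Reaction: 250 μM BAEE, 5 nM human PAD4, 90 min at 37 °C, pH 7.5 HEPES buffer with 50 μM calcium and 5 μM TPEN, following 30 min compound–enzyme preincubation (max 50 μM).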

human PAD4 (hPAD4), sequence (Q9UM07 whole entry): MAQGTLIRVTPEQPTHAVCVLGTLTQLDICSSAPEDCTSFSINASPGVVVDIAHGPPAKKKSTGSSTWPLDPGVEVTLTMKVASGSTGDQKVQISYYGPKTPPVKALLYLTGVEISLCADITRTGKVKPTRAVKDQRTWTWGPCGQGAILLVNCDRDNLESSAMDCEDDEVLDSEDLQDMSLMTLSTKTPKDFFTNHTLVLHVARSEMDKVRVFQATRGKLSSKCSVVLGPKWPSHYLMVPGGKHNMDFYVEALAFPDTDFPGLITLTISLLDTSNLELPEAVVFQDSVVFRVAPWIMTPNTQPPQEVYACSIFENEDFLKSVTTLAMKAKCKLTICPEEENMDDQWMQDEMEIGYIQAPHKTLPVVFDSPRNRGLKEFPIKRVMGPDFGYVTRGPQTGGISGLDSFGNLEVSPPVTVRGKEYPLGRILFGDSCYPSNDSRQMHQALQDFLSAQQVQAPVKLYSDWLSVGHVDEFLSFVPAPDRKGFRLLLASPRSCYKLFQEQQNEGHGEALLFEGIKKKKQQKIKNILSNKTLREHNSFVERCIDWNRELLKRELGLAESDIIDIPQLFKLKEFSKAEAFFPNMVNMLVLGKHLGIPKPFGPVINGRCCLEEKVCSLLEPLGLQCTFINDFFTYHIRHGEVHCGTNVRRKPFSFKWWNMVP

SMILES | IC50 [nM]
Cc1cc(-c2ccc3cc(-c4nn5cc(C(=O)N6CCC[C@@H](N)C6)cc(F)c5c4C)n(CC4CC4)c3n2)ccc1C(N)=O [Example 286, 4-(2-{6-[(3R)-3-Aminopiperidine-1-carbonyl]-4-fluoro-3-methylpyrazolo[1,5-a]pyridin-2-yl}-1-(cyclopropylmethyl)-1H-pyrrolo[2,3-b]pyridin-6-yl)-2-methylbenzamide] | 540
CNC(=O)c1ccc(-c2ccc3cc(-c4nn5cc(C(=O)N6CCC[C@@H](N)C6)cc(F)c5c4C)n(CC4CC4)c3n2)cn1 [Example 287, 5-(2-{6-[(3R)-3-Aminopiperidine-1-carbonyl]-4-fluoro-3-methylpyrazolo[1,5-a]pyridin-2-yl}-1-(cyclopropylmethyl)-1H-pyrrolo[2,3-b]pyridin-6-yl)-N-methylpyridine-2-carboxamide] | 1280
Cc1c(-c2cc3ccc(-c4ccn5c(C)nnc5c4)nc3n2CC2CC2)nn2cc(C(=O)N3CCC[C@@H](N)C3)cc(F)c12 [Example 288, (3R)-1-{2-[1-(Cyclopropylmethyl)-6-{3-methyl-[1,2,4]triazolo[4,3-a]pyridin-7-yl}-1H-pyrrolo[2,3-b]pyridin-2-yl]-4-fluoro-3-methylpyrazolo[1,5-a]pyridine-6-carbonyl}piperidin-3-amine] | 80
Cc1c(-c2cc3ccc(Cl)nc3n2CC2CC2)nn2cc(C(=O)N3C[C@H](N)C[C@@H](F)C3)cc(Cl)c12 [Example 289, (3R,5R)-1-{4-Chloro-2-[6-chloro-1-(cyclopropylmethyl)-1H-pyrrolo[2,3-b]pyridin-2-yl]-3-methylpyrazolo[1,5-a]pyridine-6-carbonyl}-5-fluoropiperidin-3-amine] | 3580
Cc1c(-c2cc3ccc(-c4ccc5[nH]ncc5c4)nc3n2CC2CC2)nn2cc(C(=O)N3C[C@H](N)C[C@@H](F)C3)cc(Cl)c12 [Example 290, (3R,5R)-1-{4-Chloro-2-[1-(cyclopropylmethyl)-6-(1H-indazol-5-yl)-1H-pyrrolo[2,3-b]pyridin-2-yl]-3-methylpyrazolo[1,5-a]pyridine-6-carbonyl}-5-fluoropiperidin-3-amine] | 2720
Cc1c(-c2cc3ccc(-c4ccn5c(C)nnc5c4)cc3n2CC2CC2)nn2cc(C(=O)N3CC4CCC3[C@@H]4N)cc(F)c12 (stereo partly drawn) [Example 295, (7R)-2-{2-[1-(Cyclopropylmethyl)-6-{3-methyl-[1,2,4]triazolo[4,3-a]pyridin-7-yl}-1H-indol-2-yl]-4-fluoro-3-methylpyrazolo[1,5-a]pyridine-6-carbonyl}-2-azabicyclo[2.2.1]heptan-7-amine] | 20
Cc1c(-c2cc3ccc(-c4ccc5cn[nH]c5c4)nc3n2CC2CC2)nn2cc(C(=O)N3CC4CCC3[C@@H]4N)ccc12 (stereo partly drawn) [Example 298, (7R)-2-{2-[1-(Cyclopropylmethyl)-6-(1H-indazol-6-yl)-1H-pyrrolo[2,3-b]pyridin-2-yl]-3-methylpyrazolo[1,5-a]pyridine-6-carbonyl}-2-azabicyclo[2.2.1]heptan-7-amine] | 210
Cc1c(-c2cc3ccc(-c4cccc5[nH]ncc45)nc3n2CC2CC2)nn2cc(C(=O)N3CC4CCC3[C@@H]4N)ccc12 (stereo partly drawn) [Example 299, (7R)-2-{2-[1-(Cyclopropylmethyl)-6-(1H-indazol-4-yl)-1H-pyrrolo[2,3-b]pyridin-2-yl]-3-methylpyrazolo[1,5-a]pyridine-6-carbonyl}-2-azabicyclo[2.2.1]heptan-7-amine] | 20
Cc1c(-c2cc3ccc(-c4ccc5[nH]ncc5c4)nc3n2CC2CC2)nn2cc(C(=O)N3CC4CCC3[C@@H]4N)ccc12 (stereo partly drawn) [Example 300, (7R)-2-{2-[1-(Cyclopropylmethyl)-6-(1H-indazol-5-yl)-1H-pyrrolo[2,3-b]pyridin-2-yl]-3-methylpyrazolo[1,5-a]pyridine-6-carbonyl}-2-azabicyclo[2.2.1]heptan-7-amine] | 100
Cc1c(O)cccc1-c1ccc2cc(-c3nn4cc(C(=O)N5CC6CCC5[C@@H]6N)ccc4c3C)n(CC3CC3)c2n1 (stereo partly drawn) [Example 301, 3-(2-{6-[(7R)-7-Amino-2-azabicyclo[2.2.1]heptane-2-carbonyl]-3-methylpyrazolo[1,5-a]pyridin-2-yl}-1-(cyclopropylmethyl)-1H-pyrrolo[2,3-b]pyridin-6-yl)-2-methylphenol] | 30
Cc1c(-c2cc3ccc(-c4ccccc4N4CCNC4=O)nc3n2CC2CC2)nn2cc(C(=O)N3CC4CCC3[C@@H]4N)ccc12 (stereo partly drawn) [Example 302, 1-[2-(2-{6-[(7R)-7-Amino-2-azabicyclo[2.2.1]heptane-2-carbonyl]-3-methylpyrazolo[1,5-a]pyridin-2-yl}-1-(cyclopropylmethyl)-1H-pyrrolo[2,3-b]pyridin-6-yl)phenyl]imidazolidin-2-one] | 120
COc1cc(-c2ccc3cc(-c4nn5cc(C(=O)N6CC7CCC6[C@@H]7N)ccc5c4C)n(CC4CC4)c3n2)ccc1C(N)=O (stereo partly drawn) [Example 303, 4-(2-{6-[(7R)-7-Amino-2-azabicyclo[2.2.1]heptane-2-carbonyl]-3-methylpyrazolo[1,5-a]pyridin-2-yl}-1-(cyclopropylmethyl)-1H-pyrrolo[2,3-b]pyridin-6-yl)-2-methoxybenzamide] | 240
Cc1c(-c2cc3ccc(-c4ccc(N5CCCC5=O)cc4)nc3n2CC2CC2)nn2cc(C(=O)N3CC4CCC3[C@@H]4N)ccc12 (stereo partly drawn) [Example 304, 1-[4-(2-{6-[(7R)-7-Amino-2-azabicyclo[2.2.1]heptane-2-carbonyl]-3-methylpyrazolo[1,5-a]pyridin-2-yl}-1-(cyclopropylmethyl)-1H-pyrrolo[2,3-b]pyridin-6-yl)phenyl]pyrrolidin-2-one] | 10
Cc1c(-c2cc3ccc(-c4ccc5cn[nH]c5c4F)nc3n2CC2CC2)nn2cc(C(=O)N3CC4CCC3[C@@H]4N)ccc12 (stereo partly drawn) [Example 306, (7R)-2-{2-[1-(Cyclopropylmethyl)-6-(7-fluoro-1H-indazol-6-yl)-1H-pyrrolo[2,3-b]pyridin-2-yl]-3-methylpyrazolo[1,5-a]pyridine-6-carbonyl}-2-azabicyclo[2.2.1]heptan-7-amine] | 30
COC(=O)Nc1ccc(-c2ccc3cc(-c4nn5cc(C(=O)N6CC7CCC6[C@@H]7N)ccc5c4C)n(CC4CC4)c3n2)cn1 (stereo partly drawn) [Example 308, Methyl N-[5-(2-{6-[(7R)-7-amino-2-azabicyclo[2.2.1]heptane-2-carbonyl]-3-methylpyrazolo[1,5-a]pyridin-2-yl}-1-(cyclopropylmethyl)-1H-pyrrolo[2,3-b]pyridin-6-yl)pyridin-2-yl]carbamate] | 50
Cc1c(-c2cc3ccc(-c4ccc5[nH]ncc5c4)nc3n2CC2CC2)nn2cc(C(=O)N3CCC[C@@H](N)C3)ccc12 [Example 309, (3R)-1-{2-[1-(Cyclopropylmethyl)-6-(1H-indazol-5-yl)-1H-pyrrolo[2,3-b]pyridin-2-yl]-3-methylpyrazolo[1,5-a]pyridine-6-carbonyl}piperidin-3-amine] | 400

More lines, in order of falling IC50, values ahead:

IC50 [nM] | SMILES
5890 | Cc1c(-c2cc3ccc(Cl)nc3n2CC2CC2)nn2cc(C(=O)N3CCC[C@@H](N)C3)cc(Cl)c12 [Example 291, (3R)-1-{4-Chloro-2-[6-chloro-1-(cyclopropylmethyl)-1H-pyrrolo[2,3-b]pyridin-2-yl]-3-methylpyrazolo[1,5-a]pyridine-6-carbonyl}piperidin-3-amine]
2350 | Cc1c(-c2cc3ccc(-c4ccc5[nH]ncc5c4)nc3n2CC2CC2)nn2cc(C(=O)N3CCC[C@@H](N)C3)cc(Cl)c12 [Example 292, (3R)-1-{4-chloro-2-[1-(Cyclopropylmethyl)-6-(1H-indazol-5-yl)-1H-pyrrolo[2,3-b]pyridin-2-yl]-3-methylpyrazolo[1,5-a]pyridine-6-carbonyl}piperidin-3-amine]
850 | COC1CN(c2ccc3cc(-c4nn5cc(C(=O)N6CC7CCC6[C@@H]7N)cc(F)c5c4C)n(CC4CC4)c3c2)C1 (stereo partly drawn) [Example 296, (7R)-2-{2-[1-(Cyclopropylmethyl)-6-(3-methoxyazetidin-1-yl)-1H-indol-2-yl]-4-fluoro-3-methylpyrazolo[1,5-a]pyridine-6-carbonyl}-2-azabicyclo[2.2.1]heptan-7-amine]
200 | Cc1c(-c2cc3ccc(-c4ccc(C(N)=O)cc4Cl)cc3n2CC2CC2)nn2cc(C(=O)N3CC4CCC3[C@@H]4N)cc(F)c12 (stereo partly drawn) [Example 294, 4-(2-{6-[(7R)-7-Amino-2-azabicyclo[2.2.1]heptane-2-carbonyl]-4-fluoro-3-methylpyrazolo[1,5-a]pyridin-2-yl}-1-(cyclopropylmethyl)-1H-indol-6-yl)-3-chlorobenzamide]
190 | Cc1c(-c2cc3ccc(-c4cccc5[nH]nc(F)c45)nc3n2CC2CC2)nn2cc(C(=O)N3CC4CCC3[C@@H]4N)ccc12 (stereo partly drawn) [Example 297, (7R)-2-{2-[1-(Cyclopropylmethyl)-6-(3-fluoro-1H-indazol-4-yl)-1H-pyrrolo[2,3-b]pyridin-2-yl]-3-methylpyrazolo[1,5-a]pyridine-6-carbonyl}-2-azabicyclo[2.2.1]heptan-7-amine]
70 | CNC(=O)c1ccc(-c2ccc3cc(-c4nn5cc(C(=O)N6CC7CCC6[C@@H]7N)ccc5c4C)n(CC4CC4)c3n2)cn1 (stereo partly drawn) [Example 307, 5-(2-{6-[(7R)-7-Amino-2-azabicyclo[2.2.1]heptane-2-carbonyl]-3-methylpyrazolo[1,5-a]pyridin-2-yl}-1-(cyclopropylmethyl)-1H-pyrrolo[2,3-b]pyridin-6-yl)-N-methylpyridine-2-carboxamide]
40 | Cc1cc(C(N)=O)c(F)cc1-c1ccc2cc(-c3nn4cc(C(=O)N5CC6CCC5[C@@H]6N)ccc4c3C)n(CC3CC3)c2n1 (stereo partly drawn) [Example 305, 4-(2-{6-[(7R)-7-Amino-2-azabicyclo[2.2.1]heptane-2-carbonyl]-3-methylpyrazolo[1,5-a]pyridin-2-yl}-1-(cyclopropylmethyl)-1H-pyrrolo[2,3-b]pyridin-6-yl)-2-fluoro-5-methylbenzamide]
